Patent US20220265656A1, “COMBINATION THERAPIES WITH IRE1 SMALL MOLECULE INHIBITORS” (Cornell University, priority 2019, published 2022)
Where a name gives a salt, the structure may show the parent alone.

Assays:
IRE1a [1] = target: T1, IRE1a (Homo sapiens, UniProt O75460); assay: IRE1a Endoribonuclease Nanoluciferase Assay in 293T cells; type: cell-based; design: endogenous in cells; host or cells: 293T cells; settings: XBP1 luciferase reporter in 293T cells, ER stressor
Protocol: Compounds disclosed herein were assessed for disruption of IRE1 signaling using a IRE1a Endoribonuclease Nanoluciferase Assay. Briefly, 2.5×10^6 293T cells were seeded in a 10 cm^2 tissue culture plate. About 24 hours later, the cells were transfected with Effectene. In a 15 mL tube, the following was added: 2 ug XBP1 luciferase reporter plasmid (PGK-Luc2-P2A-XBP1u-Nanoluciferase-PEST); 300 ul EC buffer; and 16 ul Enhancer, followed by incubation at room temp for 5 minutes. Next, 60 ul Effectene (Qiagen 301427) was added, followed by incubation at room temperature for 10 minutes, 2.6 mL cDMEM media was added. Old media was aspirated from the cells, followed by addition of 7 mL fresh media. Full transfection mixture was added dropwise to cells. Cells were incubated for 6 hours, followed by trypsinization, centrifugation and resuspension in 11 mL fresh cDMEM media, 100 uL of cells were plated per a well in a 96 well plate. A day later, ER stressors of choice +/−inhibitors were added. To harvest, media was aspirated from cells completely, then 50 uL 1× passive lysis buffer (Promega: E1941) was added per well and put on shaker (300 rpm) for 30 minutes at room temperature. Cells were centrifuged, and 15 uL sample per well was added to a new, opaque white 384 well plate (Corning 3570), 15 uL OneGlo (nanoluciferase kit, Promega N1630) was added. Plates were spun down, placed on shaker (300 rpm) for 10 minutes. Plates were read on luminometer, 1000 ms integration time per well, 15 uL Stop and Glo (nanoluciferase kit) was added. Plates were spun down, placed on shaker (300 rpm) for 10 minutes. Plates were read on luminometer, 1000 ms second integration time per well. Recordings are provided below in Table 4.

IRE1a [2] = target: T1, IRE1a; assay: In vitro FRET assay (IRE1a cleavage of XBP1 RNA probe); type: biochemical; design: purchased SignalChem; settings: 2 nM IRE1a
Protocol: In vitro FRET assay was performed to evaluate the ability of select compounds to inhibit IRE1, the results of which are summarized in Table 3. To perform the in vitro FRET assay, 1× complete assay buffer (CAB; […], 50 mM sodium citrate pH 7.15, 1 mM magnesium acetate, 0.02% tween 20) was used to dilute SignalChem IRE1a protein to a final concentration of 2 nM. Selected compounds were serially diluted with DMSO in a non-binding black 384-well plate for a total of 15 ul in each well, 2 ul of the serially diluted compound or DMSO control were then added to new wells containing 98 ul of 1×CAB, for a total volume of 100 ul, 10 ul of which were then transferred to wells of a new plate, 5 ul of the diluted IRE1a was then added to each well, 5 ul of a […] XBP1 RNA probe was then added to each well. Fluorescence was then read over 30 minutes in kinetic mode (485/515 nm).
Two RNA probes were used, XBP1 wildtype (SEQ ID NO: 2) which is able to be spliced by active IRE1a or XBP1 mutant (SEQ ID NO: 3) which is unable to be spliced. Each probe contained a 5′ 6-FAM modification and a 3′ IOWA Black FQ modification. […]

T1 sequence (O75460 19-977): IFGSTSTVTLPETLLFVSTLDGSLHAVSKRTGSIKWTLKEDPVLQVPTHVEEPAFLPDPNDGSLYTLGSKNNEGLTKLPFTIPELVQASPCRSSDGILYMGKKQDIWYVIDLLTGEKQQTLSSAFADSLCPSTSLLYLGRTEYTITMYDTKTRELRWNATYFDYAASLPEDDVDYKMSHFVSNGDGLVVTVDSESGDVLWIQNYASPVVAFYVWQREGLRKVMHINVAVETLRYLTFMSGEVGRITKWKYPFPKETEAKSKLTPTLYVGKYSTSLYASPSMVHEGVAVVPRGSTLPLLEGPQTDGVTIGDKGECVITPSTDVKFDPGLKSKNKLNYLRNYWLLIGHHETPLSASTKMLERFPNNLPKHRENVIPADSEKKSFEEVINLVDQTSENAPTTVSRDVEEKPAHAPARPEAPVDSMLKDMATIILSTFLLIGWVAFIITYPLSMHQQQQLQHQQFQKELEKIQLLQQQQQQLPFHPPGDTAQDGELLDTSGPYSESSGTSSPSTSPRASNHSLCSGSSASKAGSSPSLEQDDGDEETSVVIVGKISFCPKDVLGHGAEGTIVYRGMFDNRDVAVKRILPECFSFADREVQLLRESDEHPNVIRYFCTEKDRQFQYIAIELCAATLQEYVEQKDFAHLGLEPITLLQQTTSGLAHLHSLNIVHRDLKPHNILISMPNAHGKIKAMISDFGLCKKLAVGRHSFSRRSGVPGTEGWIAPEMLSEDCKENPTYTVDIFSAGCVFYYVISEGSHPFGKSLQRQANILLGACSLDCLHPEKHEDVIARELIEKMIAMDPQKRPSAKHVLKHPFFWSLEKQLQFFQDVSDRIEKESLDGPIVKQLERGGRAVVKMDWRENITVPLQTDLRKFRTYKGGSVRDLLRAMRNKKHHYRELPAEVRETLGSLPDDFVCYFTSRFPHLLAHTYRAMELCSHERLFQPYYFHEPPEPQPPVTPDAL

| Compound | EC50 (IRE1a [1]) | IC50 (IRE1a [2]) | Mean EC50 (IRE1a [1]) |
| --- | --- | --- | --- |
| CCc1cc(-c2cc(NS(=O)(=O)c3ccccc3Cl)n[nH]2)cc2cnc(N[C@H]3CC[C@H](N)CC3)nc12 [29; Formic Acid Salt] | 100 to 10000 nM |  |  |
| CCc1cc(-c2ccc(N(C)S(=O)(=O)c3ccccc3Cl)cc2C)cc2cnc(N[C@H]3CC[C@H](N)CC3)nc12 [31; Formic Acid Salt] |  | 100 to 10000 nM |  |
| N[C@H]1CC[C@H](Nc2ncc3cc(-c4cc(F)c(NS(=O)(=O)c5ccccc5Cl)cc4F)ccc3n2)CC1 [53; Formic Acid Salt] | ≤ 5 nM | ≤ 5 nM |  |
| CCc1cc(-c2ccc(NS(=O)(=O)c3ccccc3Cl)nn2)cc2cnc(N[C@H]3CC[C@H](NC)CC3)nc12 [61; Formic Acid Salt] | ≤ 5 nM | ≤ 5 nM |  |
| CCc1cc(-c2ccc(NS(=O)(=O)c3ccccc3Cl)nn2)cc2cnc(N[C@H]3CC[C@H](N(C)C)CC3)nc12 [64; Formic Acid Salt] | ≤ 5 nM | ≤ 5 nM |  |
| CCc1cc(-c2ccc(NS(=O)(=O)c3ccccc3Cl)c(F)c2)cc2cnc(N[C@@H]3CCC[C@H](N)C3)nc12 [72; Formic Acid Salt] | 100 to 10000 nM |  |  |
| N[C@H]1CCC[C@@H](Nc2ncc3cc(-c4ccc(NS(=O)(=O)c5ccccc5Cl)c(F)c4)ccc3n2)C1 [75; Formic Acid Salt] | 100 to 10000 nM | ≤ 5 nM |  |
| N[C@H]1CC[C@@H](Nc2ncc3cc(-c4ccc(NS(=O)(=O)c5ccccc5Cl)c(F)c4)ccc3n2)C1 [80; Formic Acid Salt] | 100 to 10000 nM |  |  |
| CCc1cc(-c2ccc(NS(=O)(=O)c3ccccc3Cl)c(F)c2)cc2cnc(N[C@H]3CC[C@H](N4CCCC4)CC3)nc12.O=CO [88; Formic Acid Salt] |  |  | , |
| N[C@H]1CC[C@H](Nc2ncc3cc(-c4nnc(NS(=O)(=O)c5ccccc5Cl)s4)ccc3n2)CC1 [89; Formic Acid Salt] | 100 to 10000 nM |  |  |
| CCc1cc(-c2cnc(NS(=O)(=O)c3ccccc3Cl)cc2OC)cc2cnc(N[C@H]3CC[C@H](N)CC3)nc12 [92; Formic Acid Salt] | 100 to 10000 nM |  |  |
| CCc1cc(-c2cnc(NS(=O)(=O)c3ccccc3Cl)c(F)c2)cc2cnc(N[C@H]3CC[C@H](N(C)C)CC3)nc12 [95; Formic Acid Salt] | ≤ 5 nM | ≤ 5 nM |  |
| CCc1cc(-c2ccc(NS(=O)(=O)c3ccccc3Cl)nc2OC)cc2cnc(N[C@H]3CC[C@H](N(C)C)CC3)nc12 [99; Formic Acid Salt] | ≤ 5 nM | ≤ 5 nM |  |
| CCc1nc(NS(=O)(=O)c2ccccc2Cl)ccc1-c1cc(CC)c2nc(N[C@H]3CC[C@H](N(C)C)CC3)ncc2c1 [117; Formic Acid Salt] | ≤ 5 nM | ≤ 5 nM |  |
| CCc1cc(-c2ccc(NS(=O)(=O)c3ccccc3C)nc2OC)cc2cnc(N[C@H]3CC[C@H](N(C)C)CC3)nc12 [119; Formic Acid Salt] | ≤ 5 nM | ≤ 5 nM |  |
| CCc1cc(-c2ccc(NS(=O)(=O)c3ccccc3Cl)nc2C)cc2cnc(N[C@H]3CC[C@H](N(C)CC(F)(F)F)CC3)nc12 [126; Formic Acid Salt] |  | 50 to 100 nM |  |
| CCc1cc(-c2cc(F)c(NS(=O)(=O)c3ccccc3Cl)nc2OC)cc2cnc(N[C@H]3CC[C@H](NC)CC3)nc12 [127; Formic Acid Salt] | ≤ 5 nM | ≤ 5 nM |  |
| CCc1cc(-c2cc(F)c(NS(=O)(=O)c3ccccc3Cl)nc2OC)cc2cnc(N[C@H]3CC[C@H](N(C)C)CC3)nc12 [128; Formic Acid Salt] | ≤ 5 nM | ≤ 5 nM |  |
| CCc1cc(-c2ccc(NS(=O)(=O)c3ccccc3Cl)nc2C)cc2cnc(N[C@H]3CC[C@H](N(C)CC4CCC4)CC3)nc12 [130; Formic Acid Salt] | ≤ 5 nM | ≤ 5 nM |  |

| Compound | EC50 (IRE1a [1]) | IC50 (IRE1a [2]) | Mean EC50 (IRE1a [1]) |
| --- | --- | --- | --- |
| Cc1nc(NS(=O)(=O)c2ccccc2Cl)ccc1-c1cc(C(C)(F)F)c2nc(N[C@H]3CC[C@H](N(C)C)CC3)ncc2c1 [131; Formic Acid Salt] | ≤ 5 nM | ≤ 5 nM |  |
| CCc1cc(-c2ccc(NS(=O)(=O)c3ccccc3Cl)nc2C)cc2cnc(N[C@H]3CC[C@H](N(C)CCOC)CC3)nc12 [132; Formic Acid Salt] | ≤ 5 nM | ≤ 5 nM |  |
| COc1nc(NS(=O)(=O)c2ccccc2Cl)ccc1-c1cc(C)c2nc(N[C@H]3CC[C@H](N(C)C)CC3)ncc2c1 [133; Formic Acid Salt] | ≤ 5 nM | ≤ 5 nM |  |
| COc1nc(NS(=O)(=O)c2ccccc2Cl)ccc1-c1cc(C(F)(F)F)c2nc(N[C@H]3CC[C@H](N(C)C)CC3)ncc2c1 [135; Formic Acid Salt] | ≤ 5 nM | ≤ 5 nM |  |
| COCc1cc(-c2ccc(NS(=O)(=O)c3ccccc3Cl)nc2OC)cc2cnc(N[C@H]3CC[C@H](N(C)C)CC3)nc12 [137; Formic Acid Salt] | ≤ 5 nM | ≤ 5 nM |  |
| COc1nc(NS(=O)(=O)c2ccccc2Cl)ccc1-c1cc(C)c2nc(N[C@H]3CC[C@@H](N(C)C)CC3)ncc2c1 [139; Formic Acid Salt] |  | 5 to 50 nM |  |
| CCc1cc(-c2ccc(NS(=O)(=O)c3ccccc3Cl)nc2OC)cc2cnc(N[C@H]3CC[C@@H](N(C)C)CC3)nc12 [141; Formic Acid Salt] | 100 to 10000 nM | ≤ 5 nM |  |
| CCc1cc(-c2cc(F)c(NS(=O)(=O)c3ccccc3Cl)nc2OC)cc2cnc(N[C@H]3CC[C@@H](N(C)C)CC3)nc12 [142; Formic Acid Salt] |  | 5 to 50 nM |  |
| CCc1cc(-c2ccc(NS(=O)(=O)c3ccccc3Cl)nc2OC)cc2cnc(N[C@H]3CC[C@@](C)(N(C)C)CC3)nc12 [143; Formic Acid Salt] |  | 5 to 50 nM |  |
| COc1nc(NS(=O)(=O)c2ccccc2Cl)c(F)cc1-c1cc(C)c2nc(N[C@H]3CC[C@H](N(C)C)CC3)ncc2c1 [145; Formic Acid Salt] | ≤ 5 nM | ≤ 5 nM |  |
| COc1nc(NS(=O)(=O)c2ccccc2Cl)c(F)cc1-c1cc(C)c2nc(N[C@H]3CC[C@@H](N(C)C)CC3)ncc2c1 [147; Formic Acid Salt] |  | 5 to 50 nM |  |
| COc1nc(NS(=O)(=O)c2ccccc2Cl)ccc1-c1cc(F)c2nc(N[C@H]3CC[C@H](N(C)C)CC3)ncc2c1 [148; Formic Acid Salt] | ≤ 5 nM | ≤ 5 nM |  |
| COc1nc(NS(=O)(=O)c2ccccc2Cl)c(F)cc1-c1ccc2nc(N[C@H]3CC[C@H](N(C)C)CC3)ncc2c1 [149; Formic Acid Salt] | 5 to 50 nM | ≤ 5 nM |  |
| CN[C@H]1CC[C@H](Nc2ncc3cc(-c4cc(F)c(NS(=O)(=O)c5ccccc5Cl)nc4OC)ccc3n2)CC1 [150; Formic Acid Salt] | 5 to 50 nM | ≤ 5 nM |  |
| CCc1cc(-c2ccc(NS(=O)(=O)c3ccccc3Cl)nc2C)cc2cnc(N[C@H]3CC[C@H](N(C)C)C[C@@H]3F)nc12 [151; Formic Acid Salt] | ≤ 5 nM | ≤ 5 nM |  |
| CCc1cc(-c2ccc(NS(=O)(=O)c3cccc(Cl)c3Cl)nc2C)cc2cnc(N[C@H]3CC[C@H](N(C)C)CC3)nc12 [152; Formic Acid Salt] | ≤ 5 nM | ≤ 5 nM |  |
| Cc1nc(NS(=O)(=O)c2ccccc2Cl)c(F)cc1-c1ccc2nc(N[C@H]3CC[C@H](N(C)C)CC3)ncc2c1 [153; Formic Acid Salt] | 5 to 50 nM | ≤ 5 nM |  |
| CCc1cc(-c2cnc(NS(=O)(=O)c3ccccc3Cl)nc2OC)cc2cnc(N[C@H]3CC[C@H](N(C)C)CC3)nc12 [154; Formic Acid Salt] | ≤ 5 nM | ≤ 5 nM |  |
| Cc1nc(NS(=O)(=O)c2ccccc2Cl)c(F)cc1-c1cc(F)c2nc(N[C@H]3CC[C@H](N(C)C)CC3)ncc2c1 [156; Formic Acid Salt] |  | 100 to 10000 nM |  |
